# Test results published in ChEMBL document CHEMBL1201862, “PubChem BioAssay data set” (2004).
#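 Results reflect a 48-hour exposure of cells in 96-well plates to compound at five concentrations. At the GI50, growth is halved.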 Active and inactive are the calls of the source. No stated cut-off is given here; in the data, active = GI50 up to about 1.1 µM and inactive = higher.
# How the values were obtained:
# Assay in all cases: NCI anticancer screen, dose series, 48 h
# UACC-62 = test system: UACC-62
# KM12 = test system: KM12
# NCI-H23 = test system: NCI-H23
# HCC 2998 = test system: HCC 2998
# A498 = test system: A498
# OVCAR-5 = test system: OVCAR-5
# HCT-15 = test system: HCT-15
# HOP-92 = test system: HOP-92
# SW-620 = test system: SW-620
# MDA-N = test system: MDA-N
# SK-MEL-2 = test system: SK-MEL-2
# MDA-MB-231 = test system: MDA-MB-231
# SF-539 = test system: SF-539
# MDA-MB-435 = test system: MDA-MB-435
# NCI-H460 = test system: NCI-H460
# UACC-257 = test system: UACC-257
# ACHN = test system: ACHN
# SR = test system: SR
# CAKI-1 = test system: CAKI-1
# SK-MEL-5 = test system: SK-MEL-5
# TK-10 = test system: TK-10
# RPMI-8226 = test system: RPMI-8226
# 786-0 = test system: 786-0
# PC-3 = test system: PC-3
# T47D = test system: T47D
# MCF7 = test system: MCF7
# SK-MEL-28 = test system: SK-MEL-28
# MOLT-4 = test system: MOLT-4
# U-251 = test system: U-251
# IGROV-1 = test system: IGROV-1
# CCRF-CEM = test system: CCRF-CEM
# OVCAR-4 = test system: OVCAR-4
# SNB-19 = test system: SNB-19
# SNB-75 = test system: SNB-75
# K562 = test system: K562
# LOX IMVI = test system: LOX IMVI
# COLO 205 = test system: COLO 205
# HL-60 = test system: HL-60
# SF-268 = test system: SF-268
# SK-OV-3 = test system: SK-OV-3
# UO-31 = test system: UO-31
# BT-549 = test system: BT-549
# HCT-116 = test system: HCT-116
# DU-145 = test system: DU-145
# Hs-578T = test system: Hs-578T
# EKVX = test system: EKVX
# SF-295 = test system: SF-295
# OVCAR-3 = test system: OVCAR-3
# A549 = test system: A549
# SN12C = test system: SN12C
# HOP-62 = test system: HOP-62
# M14 = test system: M14
# NCI-H522 = test system: NCI-H522
smiles,measurement,setting,value
COc1cc2c(cc1-c1coc3cc(OCC=C(C)C)ccc3c1=O)OCO2,GI50,UACC-62,25.6 µM (inactive)
same,GI50,KM12,13.8 µM (inactive)
same,GI50,NCI-H23,24.4 µM (inactive)
same,GI50,HCC 2998,15.4 µM (inactive)
same,GI50,A498,33.4 µM (inactive)
same,GI50,OVCAR-5,55.6 µM (inactive)
same,GI50,HCT-15,9.77 µM
same,GI50,HOP-92,37.3 µM (inactive)
same,GI50,SW-620,25.5 µM (inactive)
same,GI50,MDA-N,6.7 µM (inactive)
same,GI50,SK-MEL-2,48.1 µM (inactive)
same,GI50,MDA-MB-231,18.5 µM (inactive)
same,GI50,SF-539,36.2 µM (inactive)
same,GI50,MDA-MB-435,9.25 µM (inactive)
same,GI50,NCI-H460,19.1 µM (inactive)
same,GI50,UACC-257,33.3 µM (inactive)
same,GI50,ACHN,29.3 µM (inactive)
same,GI50,SR,6.32 µM (inactive)
same,GI50,CAKI-1,19.8 µM (inactive)
same,GI50,SK-MEL-5,16.8 µM (inactive)
same,GI50,TK-10,48.4 µM (inactive)
same,GI50,RPMI-8226,15.3 µM (inactive)
same,GI50,786-0,19.9 µM (inactive)
same,GI50,PC-3,42.8 µM (inactive)
same,GI50,T47D,17.7 µM (inactive)
same,GI50,MCF7,28.6 µM (inactive)
same,GI50,SK-MEL-28,45.8 µM (inactive)
same,GI50,MOLT-4,10.9 µM (inactive)
same,GI50,U-251,35.2 µM (inactive)
same,GI50,IGROV-1,30.8 µM (inactive)
same,GI50,CCRF-CEM,> 10 µM (inactive)
same,GI50,OVCAR-4,13.5 µM (inactive)
same,GI50,SNB-19,27.4 µM (inactive)
same,GI50,SNB-75,31 µM (inactive)
same,GI50,K562,6.85 µM (inactive)
same,GI50,LOX IMVI,19.3 µM (inactive)
same,GI50,COLO 205,29.4 µM (inactive)
same,GI50,HL-60,10 µM (inactive)
same,GI50,SF-268,43.4 µM (inactive)
same,GI50,SK-OV-3,41.5 µM (inactive)
same,GI50,UO-31,31 µM (inactive)
same,GI50,BT-549,16.8 µM (inactive)
same,GI50,HCT-116,17.2 µM (inactive)
same,GI50,DU-145,34.9 µM (inactive)
same,GI50,Hs-578T,28.8 µM (inactive)
same,GI50,EKVX,24.3 µM (inactive)
same,GI50,SF-295,33.6 µM (inactive)
same,GI50,OVCAR-3,61.2 µM (inactive)
same,GI50,A549,28.6 µM (inactive)
same,GI50,SN12C,27.8 µM (inactive)
same,GI50,HOP-62,29.8 µM (inactive)
same,GI50,M14,26.8 µM (inactive)
same,GI50,NCI-H522,15.5 µM (inactive)
